The values that follow come from patent publication US20130005660A1, “Plasma Activation of Biological Materials for Surface Modification” (ORTHOBOND, INC., priority 2011, published 2013).

The data set in a line: Stability of gentamicin in 0.25M HCl under autoclave conditions. The class given is physicochemical.

In the case of gentamicin, the stability of gentamicin result is “No significant loss of gentamicin detection”.
